Reference: US6552083B1, “Agents inhibiting chronic rejection reactions after organ transplantation” (Kissei Pharmaceutical Co., Ltd., priority 1999, dated 2003)

Key:
[1] = test system: coronary arteries of transplanted heart; assay: Test for confirming inhibitory activity against intimal thickening in transplant organ after organ transplantation (mouse heart transplantation model); assay type: in vivo, mice (DBA/2 donor, B10D2 recipient)
Text: (§1) In a transplantation test, 4 to 6-week-old DBA/2 male mice each weighing 20 to 25 g (available from Charles River Laboratories) were used an donor animals, and 4 to 6-week-old B10D2 male mice each weighing 20 to 25 g (ava from Charles River Laboratories) were used as recipient animals. From three days before testing, mice in a control group were fed on a standard diet, and mice in a drug-treated group were given a 0.25% or 0.5% tranilast-containing diet (CE-2). On the day of testing, the heart was excised from a donor mouse and transplanted into the abdomen of a recipient mouse in accordance with the procedures described in the literature (Science, vol. 255, pp. 1125-1127 (1992)). Fourteen and twenty-eight days from the transplantation, the transplanted heart was excised and placed in formalin. Three specimens (thickness: […]) were sliced from different sites of the excised heart. Each slice was stained with Elastica van Geison stain, and the coronary arteries were observed under a microscope to calculate a vascular stenosis ratio according to the following equation: Vascular stenosis ratio (%)=[(area inside of elastica −lumen area)/area inside of elastica]×100

transplanted heart = assay: Test for evaluating rejection in transplant organ after organ transplantation (infiltration of lymphocytes into the tissue); assay type: in vivo, mice (DBA/2 donor, B10D2 recipient)
Text: as §1, with “The degree” for “Vascular stenosis ratio (%)=[(area inside”, “rejection in the hearts transplanted to and excited from the recipient mice in the same manner as in Example 1 was evaluated in terms” for “elastica −lumen area)/area inside”, “the degree of infiltration of lymphocytes into the tissue in accordance with the Working Formation of the International Society for Heart and Lung Transplantation and with the following criteria. 0 . . . No infiltration of lymphocytes into the tissue was seen. 1 . . . Slight infiltration of lymphocytes into the tissue was observed. 2 . . . Medium infiltration of lymphocytes into the tissue was observed. 3 . . . Severe infiltration of lymphocytes into the tissue was observed.” for “elastica]×100”

[2] = 0.25% or 0.5% tranilast-containing diet, mouse heart transplantation

COc1ccc(/C=C/C(=O)Nc2ccccc2C(=O)O)cc1OC [Tranilast, N-(3,4-dimethoxycinnamoyl)anthranililc acid]
Inhibition of vascular thickening in a transplanted heart (result in words) [1, 2]: dose-dependently significantly inhibits vascular thickening in a transplanted heart | Vascular Stenosis Ratio (%) ([1]; 0.25% tranilast-containing feed from 3 days before transplantation, 14-days post-operation, control group 70.3): 55.5% | Vascular Stenosis Ratio (%) ([1]; 0.25% tranilast-containing feed, 28-days post-operation, control group 73.3): 61.9% | Vascular Stenosis Ratio (%) ([1]; 0.5% tranilast-containing feed, 14-days post-operation, control group 70.3): 45.5% | Vascular Stenosis Ratio (%) ([1]; 0.5% tranilast-containing feed, 28-days post-operation, control group 73.3): 47.7% | Infiltration of lymphocytes into the tissue (result in words) (transplanted heart; [2]): alleviates infiltration of lymphocytes into the tissue | Degree of rejection (transplanted heart; score 0 (no) to 3 (severe) lymphocyte infiltration, 0.25% tranilast-containing feed, 14-days post-operation, control group 2.07): 1.70 | Degree of rejection (transplanted heart; score 0 to 3, 0.25% tranilast-containing feed, 28-days post-operation, control group 2.88): 2.38 | Degree of rejection (transplanted heart; score 0 to 3, 0.5% tranilast-containing feed, 14-days post-operation, control group 2.07): 1.80 | Degree of rejection (transplanted heart; score 0 to 3, 0.5% tranilast-containing feed, 28-days post-operation, control group 2.88): 2.08
